We go through seven molecules from patent EP0302626A2, “Insecticidal compounds” (IMPERIAL CHEMICAL INDUSTRIES PLC, priority 1987, dated 1989).

Holding throughout (format): in vivo
For data set [1], the system named is Tetranychus urticae (spider mites - adult). Kind of data set: insecticidal mortality test, contact, French bean leaf. To be noted: Tetranychus urticae, 72 h, read-out: grading of mortality, Tua, 100 ppm, 3 days. Here is the method: (§1) The activity of the Product was determined using a variety of insect pests. The Product was used in the form of liquid preparations containing 500, 250 or 100 parts per million (ppm) by weight of the Product. The preparations were made by dissolving the Product in acetone and diluting the solutions with water containing 0.01% by weight of a wetting agent sold under the trade name "LlSSAPOL" NX until the liquid preparations contained the required concentration of the Product. "Lissapol" is a Registered Trade Mark.
(§2) The test procedure adopted with regard to each pest was basically the same and comprised supporting a number of the pests on a medium which was usually a host plant or a foodstuff on which the pests feed, and treating either or both the pests and the medium with the preparations. The mortality of the pests was then assessed at periods usually varying from one to three days after the treatment.
(§3) The results of the tests are given in Table III for each of the Products, at the rate in parts per million given in the second column as a grading of mortality designated as A, B or C wherein A indicates 80-100% mortality, B indicates 50-79% mortality and C indicates less than 50% mortality.
(§4) In Table 111 the pest organism used is designated by a letter code and the pests species, the support medium or food, and the type and duration of test is given in Table II.

The test system of data set [2] is Musca domestica (houseflies - adults). Kind of data set: insecticidal mortality test, contact, cotton wool/sugar. The following applies: 72 h, read-out: grading of mortality, MD. As for the experimental part: as §1, §2, §3, §4
Data set [3] concerns Nephotettix cincticeps (green leaf hopper - nymphs). Kind of data set: insecticidal mortality test, contact, rice plant. The following applies: 48 h, 100 ppm, contact, rice plant, test duration of 2 days (footnote +), read-out: grading of mortality, NC. Here is the method: as §1, §2, §3, §4
The subject of data set [4] is Blattella germanica (cockroach nymphs). Kind of data set: insecticidal mortality test, residual, plastic pot. To be noted: 72 h, read-out: grading of mortality, BG. As for the experimental part: as §1, §2, §3, §4
Data set [5] relates to Myzus persicae (aphids). Kind of data set: insecticidal mortality test, contact, Chinese Cabbage leaf. The following applies: 72 h, read-out: grading of mortality, MP. Here is the method:
as §1, §2, §3, §4

Data set [6] relates to Spodoptera exigua (lesser army worm - larvae). Kind of data set: insecticidal mortality test, residual, cotton leaf. To be noted: 48 h, read-out: grading of mortality, SP. As for the experimental part:
as §1, §2, §3, §4

Data set [7] has as its system Heliothis virescens (tobacco budworm - larvae). Kind of data set: insecticidal mortality test, residual, cotton leaf. To be noted: 48 h, 100 ppm, residual, cotton leaf, test duration of 2 days (footnote +), read-out: grading of mortality, HV. Here is the method:
as §1, §2, §3, §4

Data set [8] has as its system Diabrotica balteata (rootworm larvae). Kind of data set: insecticidal mortality test, residual, filter paper/maize seed. To be noted: 48 h, read-out: grading of mortality, DB. Here is the method:
as §1, §2, §3, §4

Data set [9] deals with Blattella germanica (adult males). Kind of data set: Blattella germanica knockdown test. The following applies: for % MORTALITY 48 hrs / KT₅₀ / KT₉₀ / mortality at 250 ppm: 250 ppm spray; for % MORTALITY 48 hrs / mortality at 250 ppm: insects held at 25°C and 65% relative humidity for 48 hours; for % MORTALITY 48 hrs / pest or weed control at 250 ppm / mortality at 250 ppm / % KNOCKDOWN OBSERVED 15 min / % KNOCKDOWN OBSERVED 20 min: tests 1 and 2 are repeats; for % MORTALITY 48 hrs: 2880 min; for KT₅₀: time taken to knockdown 50% of test insects; for KT₅₀ / KT₉₀: Tetramethrin: mean of 3 assessments; for KT₉₀: time taken to knockdown 90% of test insects; for pest or weed control at 250 ppm / mortality at 250 ppm: Blattella germanica; for pest or weed control at 250 ppm: topical, Tetramethrin: mean of 27 observations; for pest or weed control at 250 ppm / % KNOCKDOWN OBSERVED 15 min / % KNOCKDOWN OBSERVED 20 min: 250 ppm in kerosene, 1 cm3 sprayed onto 10 adult males; for mortality at 250 ppm: 48 h, read-out: % MORTALITY 48 hrs. As for the experimental part:
The test compound was dissolved in acetone (2 cm³) and the solution diluted to a concentration of 250 ppm with kerosene. 1 cm³ Of this preparation was sprayed onto 10 Blattella germanica (adult males) held in a netted plastic pot in a Burkhard potter Tower. Assessment of knockdown was performed at intervals of 5 minutes up to a total of 20 minutes. On removal from the Burkhard Potter Tower, the insects were held at 25°C and 65% relative humidity for 48 hours, and an assessment of mortality performed. Each test was repeated.
In some tests, additional knockdown assessment was performed at intervals of 1, 2, 3 and 4 minutes, and KT₅₀ and KT₉₀ values determined (the time taken, in minutes, to knockdown 50% and 90% respectively of test insects).

The mark [10] stands for this setting: 5 min, 5 min, read-out: % KNOCKDOWN OBSERVED 5 min.
Setting [11] is: 10 min, 10 min, read-out: % KNOCKDOWN OBSERVED 10 min.

Molecules are shown by their SMILES. Where “and” joins values, the source holds several entries; their conditions need not be identical. Equal entries are not always repeated. Where two headings read alike, the source gives them in different places.

For the molecule `CC1(C)C(C=C(Cl)C(F)(F)F)C1C(=O)OCc1c(F)c(F)c(CCC#N)c(F)c1F` (racemic) [Product XXI, 4-(2-cyanoethyl)-2,3,5,6-tetrafluorobenzyl (1RS, cis)-3-(Z-2-chloro-3,3,3-trifluoroprop-1-en-1-yl)-2,2-dimethylcyclopropanecarboxylate], the mortality (commonly the share of the test organisms that died) at 100 ppm is under 50% in data set [1]; under 50% in data set [2]; 80 to 100% in [3]; under 50% in data set [4]; 80 to 100% in data set [5]; under 50% in data set [6]. Moreover, the results for the mortality at 100 ppm in data set [7] and in data set [8] were 80 to 100% and under 50%, respectively. Further, the “% MORTALITY 48 hrs” value in data set [9] is 60% and 100%. In [9], the KT₅₀ was 4.2 min and 3.6 min. Further, in data set [9], the KT₉₀ was 8.8 min and 8.2 min. For the same molecule, the results for the pest or weed control at 250 ppm in [9] (setting [10]) and in data set [9] (setting [11]) were 60% and 100%, respectively.

For the molecule `CC(C)=NOCc1c(F)c(F)c(COC(=O)C2C(C=C(Cl)C(F)(F)F)C2(C)C)c(F)c1F` (racemic) [Product XXII, 4-[(prop-2-ylideneamino)oxymethyl]-2,3,5,6-tetrafluorobenzyl (1RS, cis)-3-(Z-2-chloro-3,3,3-trifluoroprop-1-en-1-yl-2,2-dimethylcyclopropanecarboxylate], the mortality at 100 ppm in data set [1] is 80 to 100%; in [2] it was 80 to 100%; in [3], 80 to 100%; in data set [4], under 50%; in [5] it was 80 to 100%; in data set [6], 80 to 100%. The mortality at 100 ppm in data set [7] and in data set [8] was 80 to 100% throughout. The KT₅₀ in data set [9] is 3.6 min and 2.5 min. Moreover, the KT₉₀ in data set [9] is 8.3 min and 4.5 min. Further, the mortality at 250 ppm in [9] was found to be 100%. Moreover, the pest or weed control at 250 ppm in data set [9] (setting [11]) came out at 100%.

Regarding `CC(C)=NOCc1c(F)c(F)c(COC(=O)[C@@H]2[C@@H](/C=C(\Cl)C(F)(F)F)C2(C)C)c(F)c1F` (racemic) [Product XXIII, 4-[(prop-2-ylidenamino)oxymethyl]-2,3,5,6-tetrafluorobenzyl (1RS, trans)-3-(Z-2-chloro-3,3,3-trifluoroprop-1-en-1-yl)-2,2-dimethylcyclopropanecarboxylate], the mortality at 100 ppm in data set [1] was 80 to 100%; in [2], under 50%; in data set [3], 80 to 100%; in [4], under 50%; in data set [5], 80 to 100%; in data set [6], 80 to 100%. Further, the mortality at 100 ppm in data set [7] is under 50%; in data set [8], 80 to 100%. Moreover, the “% KNOCKDOWN OBSERVED 15 min” value in [9] worked out at 10%. Moreover, the “% KNOCKDOWN OBSERVED 20 min” value in [9] worked out at 10%. The molecule further had a KT₉₀ in data set [9] of 9.3 min. In addition, the mortality at 250 ppm in [9] is 100%.

On to `C#CCN(C)Cc1c(F)c(F)c(COC(=O)[C@@H]2[C@H](/C=C(\Cl)C(F)(F)F)C2(C)C)c(F)c1F` (racemic) [Product XXIV, 4-[(N-(prop-2-yn-1-yl)-N-methyl)aminomethyl]-2,3,5-6-tetrafluorobenzyl (1RS, cis)-3-(Z-2-chloro-3,3,3-trifluoroprop-1-en-1-yl)-2,2-dimethylcyclopropanecarboxylate], for which the mortality at 100 ppm was in the range of 50 to 79% in [1]; 80 to 100% in data set [2]; 80 to 100% in [3]; 50 to 79% in data set [4]; 80 to 100% in data set [5]; 80 to 100% in [6]. The mortality at 100 ppm in [7] and in data set [8] was 80 to 100% throughout. Also, the “% MORTALITY 48 hrs” value in [9] was 100% and 70%. In addition, the KT₅₀ in data set [9] was 4.2 min and 5.0 min. For the same molecule, the KT₉₀ in [9] was 8.8 min and 9.0 min. Moreover, the figures for the pest or weed control at 250 ppm in data set [9] (setting [10]) and in data set [9] (setting [11]) were 60% and 100%, respectively.

On to `C#CCSCc1c(F)c(F)c(COC(=O)[C@@H]2[C@H](/C=C(\Cl)C(F)(F)F)C2(C)C)c(F)c1F` (racemic) [Product XXV, 4-[(prop-2-yn-1-yl)thiomethyl]-2,3,5,6-tetra fluorobenzyl (1RS, cis)-3-(Z-2-chloro-3,3,3-trifluoroprop-1-en-1-yl)-2,2-dimethylcyclopropanecarboxylate], for which the mortality at 100 ppm in [1], in [2], in data set [3], in data set [4], in data set [5] and in [6] was 80 to 100% each time. The mortality at 100 ppm in data set [7] and in [8] was 80 to 100% in each case. The KT₅₀ in data set [9] was 2.5 min and 3.6 min. For the same molecule, the KT₉₀ in [9] was 4.5 min and 8.3 min. The pest or weed control at 250 ppm in data set [9] (setting [11]) amounted to 100%.

With `CC(=O)SCc1c(F)c(F)c(COC(=O)[C@@H]2[C@H](/C=C(\Cl)C(F)(F)F)C2(C)C)c(F)c1F` (racemic) [Product XXVI, 4-(acetylthiomethyl)-2,3,5,6-tetrafluorobenzyl (1RS, cis)-3-(Z-2-chloro-3,3,3-trifluoroprop-1-en-1-yl)-2,2-dimethylcyclopropanecarboxylate], the mortality at 100 ppm in data set [1], in [2], in data set [3], in [4], in data set [5] and in data set [6] was 80 to 100% each time. In addition, the mortality at 100 ppm in data set [7] and in data set [8] was 80 to 100% each time. Besides, the “% KNOCKDOWN OBSERVED 15 min” value in [9] is recorded as 60%. The “% KNOCKDOWN OBSERVED 20 min” value in data set [9] was determined as 100%. Further, in data set [9], the mortality at 250 ppm was determined as 100%.

`CC(=O)SCc1c(F)c(F)c(COC(=O)[C@@H]2[C@@H](/C=C(\Cl)C(F)(F)F)C2(C)C)c(F)c1F` (racemic) [Product XXVII, 4-(acetylthiomethyl)-2,3,5,6-tetrafluorobenzyl (1RS, trans)-3-(Z-2-chloro-3,3,3-trifluoroprop-1-en-1-yl)-2,2-dimethylcyclopropanecarboxylate]: the mortality at 100 ppm in data set [1] was 80 to 100%; in data set [2], 80 to 100%; in [3] it was 80 to 100%; in [4], under 50%; in data set [5] it was 80 to 100%; in data set [6], 80 to 100%. In addition, the mortality at 100 ppm in data set [7] and in data set [8] was 80 to 100% throughout. For the same molecule, the “% KNOCKDOWN OBSERVED 15 min” value in [9] worked out at 40%. Also, the “% KNOCKDOWN OBSERVED 20 min” value in data set [9] was found to be 40%. Besides, the “% MORTALITY 48 hrs” value in [9] worked out at 80%. Moreover, in [9], the mortality at 250 ppm turned out to be 100%.
